Our source for the IC50, EC50 and CC50 values is ChEMBL document CHEMBL1201862, “PubChem BioAssay data set” (2004).

The source made the active and inactive calls. Some results are limits rather than exact numbers.

A short description of assay [1]: CRF-BP/CRF-R2 complex antagonists, dose response, cell-based, uHTS hits, 384-well (AID 651639). The assay is classed as functional, Homo sapiens. Particulars: read-out: IC50_Mean.
Assay [2] relates to BJ. As to the kind of experiment: cytotoxicity toward BJ-TERT fibroblasts, dose response, cell-based, RAS-independent, luminescence (AID 1933). The assay is classed as functional. Particulars: Homo sapiens.
For assay [3], the system named is BJ. Briefly: cytotoxicity toward Ras-transformed BJeLR fibroblasts, dose response, cell-based, alamar blue fluorescence, cherrypicked samples (AID 2631).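 Further: confirmatory dose-response assay in RAS-dependent BJ fibroblasts engineered with TERT, LT and ST, with cytotoxicity read by fluorescence.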 As to conditions: Homo sapiens. The assay is classed as functional.
For a further assay, the target named is T1, Streptokinase A (Streptococcus pyogenes serotype M1, UniProt P10520).
T1 sequence (P10520 whole entry): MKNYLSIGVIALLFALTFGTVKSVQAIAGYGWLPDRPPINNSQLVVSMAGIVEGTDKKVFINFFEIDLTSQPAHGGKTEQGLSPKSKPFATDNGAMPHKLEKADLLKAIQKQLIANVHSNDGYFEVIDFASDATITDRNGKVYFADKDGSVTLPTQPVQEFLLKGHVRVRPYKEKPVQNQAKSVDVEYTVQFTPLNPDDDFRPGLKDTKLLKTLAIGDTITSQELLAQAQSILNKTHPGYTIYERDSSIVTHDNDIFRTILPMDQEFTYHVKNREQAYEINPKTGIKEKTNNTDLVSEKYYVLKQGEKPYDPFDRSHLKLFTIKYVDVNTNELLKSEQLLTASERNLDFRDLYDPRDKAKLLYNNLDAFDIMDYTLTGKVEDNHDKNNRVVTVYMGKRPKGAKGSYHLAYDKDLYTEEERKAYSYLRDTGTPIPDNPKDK
As to the kind of experiment: S. pyogenes streptokinase expression inhibitors, potency, dose response, plasminogen activation absorbance, OD405 (AID 1914).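 Further: secreted streptokinase activity via plasminogen activation per viability signal from cell pellet.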 The assay is classed as functional, Streptococcus pyogenes M1 GAS.

The target of assay [4] is Photoreceptor-specific nuclear receptor (Homo sapiens, UniProt Q9Y5X4). Type of assay: functional, cell-based.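 Further: CHO-S cells with Gal4-NCOR and VP16-NR2E3 two-hybrid luciferase reporter.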
A short description of assay [5]: cytotoxicity toward DRD oncogenic fibroblasts, dose response, cell-based, non-viral oncogenic, luminescence (AID 1934). As to conditions: Homo sapiens. Type of assay: functional.
Assay [6] in a line: C. albicans growth with fluconazole, confirmation, fluorescence, retest (AID 2467). The assay is classed as functional, cell-based.
The target in assay [7] is T2, RNA-binding protein pos-1 (Caenorhabditis elegans, UniProt G5EF15).
T2 sequence (G5EF15 whole entry): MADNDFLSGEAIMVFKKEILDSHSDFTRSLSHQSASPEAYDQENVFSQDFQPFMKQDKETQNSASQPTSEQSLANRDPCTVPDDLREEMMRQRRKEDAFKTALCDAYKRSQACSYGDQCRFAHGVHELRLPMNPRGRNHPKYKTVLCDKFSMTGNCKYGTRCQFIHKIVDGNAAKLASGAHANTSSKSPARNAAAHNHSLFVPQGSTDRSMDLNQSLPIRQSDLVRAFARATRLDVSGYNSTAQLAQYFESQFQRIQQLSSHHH
Briefly: inhibitors of POS-1/mex-3 RNA binding, dose response, biochemical, fluorescence polarization (AID 1964).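 Further: purified POS-1 fused to maltose binding protein made in E. coli; potency of compounds blocking POS-1 binding to fluorescent RNA.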

In assay [8] the test system is Streptococcus sp. 'group A'. Briefly: growth inhibition of control SK(-) GAS strain, dose response, counter-screen for streptokinase expression inhibitor project, luminescence, kanamycin, BacTiterGlo, confirmation (AID 1900). Type of assay: functional, organism-based.
The target in assay [9] is T3, Zinc finger protein mex-5 (Caenorhabditis elegans, UniProt Q9XUB2).
T3 sequence (Q9XUB2 whole entry): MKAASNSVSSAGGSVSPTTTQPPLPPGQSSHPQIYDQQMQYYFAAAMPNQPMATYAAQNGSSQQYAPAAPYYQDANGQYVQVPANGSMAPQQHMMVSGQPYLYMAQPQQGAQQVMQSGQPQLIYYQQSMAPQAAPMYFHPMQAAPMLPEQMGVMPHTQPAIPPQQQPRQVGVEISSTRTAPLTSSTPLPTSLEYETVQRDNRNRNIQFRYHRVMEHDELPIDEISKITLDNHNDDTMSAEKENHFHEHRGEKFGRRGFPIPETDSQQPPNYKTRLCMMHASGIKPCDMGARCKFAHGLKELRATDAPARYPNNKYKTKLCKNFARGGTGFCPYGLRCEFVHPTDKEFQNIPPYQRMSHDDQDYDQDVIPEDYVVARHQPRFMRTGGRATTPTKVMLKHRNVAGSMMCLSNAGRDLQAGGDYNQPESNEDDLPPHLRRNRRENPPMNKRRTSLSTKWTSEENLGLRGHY
Briefly: MEX-5/TCR-2 RNA interaction inhibitors, dose response, biochemical, C. elegans, fluorescence polarization (AID 1960).

The subject of the next assay is Streptococcus. Briefly: Group A Streptococcus viability loss, dose response, counter-screen for streptokinase expression inhibitor project, luminescence, BacTiterGlo (AID 1915).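 Further: potency for reduction of bacterial viability or growth.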 The assay is classed as functional, organism-based.
A short description of assay [10]: NIH-3T3 fibroblast cytotoxicity, dose response, cytotoxicity control, cell-based, fluorescence, Alamar Blue, secondary assay (AID 2327).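 Further: NIH-3T3 mouse fibroblasts cultured with fluconazole at 8 µg/mL.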 The assay is classed as functional.
Assay [11] concerns BJ. As to the kind of experiment: cells. Type of assay: functional, cell-based. Particulars: Homo sapiens.
The test system of assay [12] is BJ. Briefly: cytotoxicity toward BJ-TERT-LT-ST fibroblasts, dose response, cell-based, RAS-independent, luminescence (AID 1935).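 Further: BJ fibroblasts immortalized with TERT plus LT and ST oncogenes.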 Type of assay: functional. As to conditions: Homo sapiens.
Another assay has as its system Vero. As to the kind of experiment: cells. Type of assay: functional. Particulars: Chlorocebus sabaeus.
Assay [13] can be described thus: StAR promoter reporter inhibition counter-screen, dose response, counter-screen for LRH-1 inverse agonist project, cell-based, luminescence, luciferase reporter (AID 651969). Type of assay: functional.
For assay [14], the target named is Nuclear receptor subfamily 5 group A member 2 (Homo sapiens, UniProt O00482). Type of assay: functional, cell-based.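 Further: HEK293T cells transfected with LRH-1 and a StAR promoter luciferase reporter; potency for inhibitors that lower LRH-1 driven reporter light.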
Assay [15] in a line: A Cell Based Secondary Assay To Explore Cytotoxicity of Compounds that Sensitize Mycobacterium Tuberculosis to Beta-Lactam Antibiotics. The assay is classed as functional.
For the next assay, the target named is Steroidogenic factor 1 (Homo sapiens, UniProt Q13285). Briefly: Counterscreen for inverse agonists of the liver receptor homolog-1 (LRH-1; NR5A2): Luminescence-based cell-based high throughput dose response assay to identify inverse agonists of the Steroidogenic Factor 1 Nuclear Receptor (SF1; NR5A1). Type of assay: functional.
For assay [16], the target named is T4, Low molecular weight phosphotyrosine protein phosphatase (Homo sapiens, UniProt P24666).
T4 sequence (P24666 whole entry): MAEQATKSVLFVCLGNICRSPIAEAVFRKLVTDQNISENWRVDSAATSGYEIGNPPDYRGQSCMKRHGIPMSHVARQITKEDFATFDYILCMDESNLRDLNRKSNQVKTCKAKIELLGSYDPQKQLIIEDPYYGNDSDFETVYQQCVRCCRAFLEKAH
The assay is classed as functional. As to conditions: read-out: IC50_Mean.

For assay [17], the target named is Dual specificity protein phosphatase 3 (Homo sapiens, UniProt P51452). Briefly: VHR phosphatase inhibition, dose response, selectivity assay for STEP inhibitor project, biochemical (AID 602374). The assay is classed as functional. As to conditions: read-out: IC50_Mean.
Assay [18] has as its target Beta-lactamase (Pseudomonas aeruginosa, UniProt Q79MP6).
The next assay deals with Beta Lactamase (Pseudomonas aeruginosa, UniProt Q932Y6).
For assay [19], the target named is T5, Voltage-gated N-type calcium channel alpha-1B subunit/Amyloid beta A4 precursor protein-binding family A member 1 (Homo sapiens, UniProt Q00975+Q02410). The assay is classed as protein assay.
Assay [20] addresses T6, Tyrosine-protein phosphatase non-receptor type 11 (Homo sapiens, UniProt Q06124).
T6 sequence (Q06124 whole entry): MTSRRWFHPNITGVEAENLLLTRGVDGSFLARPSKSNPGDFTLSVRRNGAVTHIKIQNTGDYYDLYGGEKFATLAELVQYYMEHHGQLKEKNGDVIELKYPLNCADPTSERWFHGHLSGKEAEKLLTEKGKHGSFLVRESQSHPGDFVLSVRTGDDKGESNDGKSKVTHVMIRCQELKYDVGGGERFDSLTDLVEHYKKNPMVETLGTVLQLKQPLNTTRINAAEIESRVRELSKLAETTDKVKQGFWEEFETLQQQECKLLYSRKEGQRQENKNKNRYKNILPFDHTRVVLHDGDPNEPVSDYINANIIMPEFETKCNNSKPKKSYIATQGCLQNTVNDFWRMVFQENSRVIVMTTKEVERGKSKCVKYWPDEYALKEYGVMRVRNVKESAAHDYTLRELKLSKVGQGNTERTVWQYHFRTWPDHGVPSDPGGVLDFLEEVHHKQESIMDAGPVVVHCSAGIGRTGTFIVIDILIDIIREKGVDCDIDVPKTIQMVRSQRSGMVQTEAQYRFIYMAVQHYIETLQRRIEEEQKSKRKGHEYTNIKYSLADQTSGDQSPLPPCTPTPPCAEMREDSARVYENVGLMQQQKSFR
As to the kind of experiment: SHP2 phosphatase inhibition, dose response, selectivity assay for STEP inhibitor project, biochemical (AID 602367). Type of assay: functional. Particulars: read-out: IC50_Mean.

Assay [21] deals with T5, Voltage-gated N-type calcium channel alpha-1B subunit/Amyloid beta A4 precursor protein-binding family A member 1. The assay is classed as protein assay. This is another data set of the same source.
Assay [22] concerns the target Beta-lactamase (Salmonella choleraesuis (strain SC-B67), UniProt Q5J463).
Assay [23] concerns the target T7, Tyrosine-protein phosphatase non-receptor type 5 (Homo sapiens, UniProt P54829).
T7 sequence (P54829 whole entry): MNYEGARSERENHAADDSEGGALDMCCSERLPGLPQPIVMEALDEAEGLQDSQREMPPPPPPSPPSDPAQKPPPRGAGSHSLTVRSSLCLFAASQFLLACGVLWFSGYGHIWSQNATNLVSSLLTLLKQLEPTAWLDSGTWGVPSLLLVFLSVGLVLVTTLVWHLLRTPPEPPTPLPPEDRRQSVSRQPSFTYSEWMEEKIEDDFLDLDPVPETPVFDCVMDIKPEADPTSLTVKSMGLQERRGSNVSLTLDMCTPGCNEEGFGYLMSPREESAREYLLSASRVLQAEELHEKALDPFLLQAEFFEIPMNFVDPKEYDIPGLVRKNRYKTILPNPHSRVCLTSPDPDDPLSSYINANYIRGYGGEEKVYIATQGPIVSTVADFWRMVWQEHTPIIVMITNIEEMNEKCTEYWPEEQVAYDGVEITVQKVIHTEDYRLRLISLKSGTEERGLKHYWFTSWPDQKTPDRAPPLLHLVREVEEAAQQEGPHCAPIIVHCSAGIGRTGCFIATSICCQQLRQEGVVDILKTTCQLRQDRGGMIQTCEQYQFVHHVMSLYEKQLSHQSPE
Briefly: STEP phosphatase inhibitors, confirmation, biochemical, fluorescence intensity, uHTS hits (AID 602372). As to conditions: read-out: IC50_Mean. The assay is classed as functional.

For assay [24], the target named is T4, Low molecular weight phosphotyrosine protein phosphatase. Type of assay: functional. Particulars: read-out: IC50_Mean. This is another data set of the same source.
Assay [25] deals with Tyrosine-protein phosphatase non-receptor type 22 (Homo sapiens, UniProt Q9Y2R2). Briefly: PTPN22 phosphatase inhibition, dose response, selectivity assay for STEP inhibitor project, biochemical (AID 624241). The assay is classed as functional.

T5 sequence (Q00975 whole entry): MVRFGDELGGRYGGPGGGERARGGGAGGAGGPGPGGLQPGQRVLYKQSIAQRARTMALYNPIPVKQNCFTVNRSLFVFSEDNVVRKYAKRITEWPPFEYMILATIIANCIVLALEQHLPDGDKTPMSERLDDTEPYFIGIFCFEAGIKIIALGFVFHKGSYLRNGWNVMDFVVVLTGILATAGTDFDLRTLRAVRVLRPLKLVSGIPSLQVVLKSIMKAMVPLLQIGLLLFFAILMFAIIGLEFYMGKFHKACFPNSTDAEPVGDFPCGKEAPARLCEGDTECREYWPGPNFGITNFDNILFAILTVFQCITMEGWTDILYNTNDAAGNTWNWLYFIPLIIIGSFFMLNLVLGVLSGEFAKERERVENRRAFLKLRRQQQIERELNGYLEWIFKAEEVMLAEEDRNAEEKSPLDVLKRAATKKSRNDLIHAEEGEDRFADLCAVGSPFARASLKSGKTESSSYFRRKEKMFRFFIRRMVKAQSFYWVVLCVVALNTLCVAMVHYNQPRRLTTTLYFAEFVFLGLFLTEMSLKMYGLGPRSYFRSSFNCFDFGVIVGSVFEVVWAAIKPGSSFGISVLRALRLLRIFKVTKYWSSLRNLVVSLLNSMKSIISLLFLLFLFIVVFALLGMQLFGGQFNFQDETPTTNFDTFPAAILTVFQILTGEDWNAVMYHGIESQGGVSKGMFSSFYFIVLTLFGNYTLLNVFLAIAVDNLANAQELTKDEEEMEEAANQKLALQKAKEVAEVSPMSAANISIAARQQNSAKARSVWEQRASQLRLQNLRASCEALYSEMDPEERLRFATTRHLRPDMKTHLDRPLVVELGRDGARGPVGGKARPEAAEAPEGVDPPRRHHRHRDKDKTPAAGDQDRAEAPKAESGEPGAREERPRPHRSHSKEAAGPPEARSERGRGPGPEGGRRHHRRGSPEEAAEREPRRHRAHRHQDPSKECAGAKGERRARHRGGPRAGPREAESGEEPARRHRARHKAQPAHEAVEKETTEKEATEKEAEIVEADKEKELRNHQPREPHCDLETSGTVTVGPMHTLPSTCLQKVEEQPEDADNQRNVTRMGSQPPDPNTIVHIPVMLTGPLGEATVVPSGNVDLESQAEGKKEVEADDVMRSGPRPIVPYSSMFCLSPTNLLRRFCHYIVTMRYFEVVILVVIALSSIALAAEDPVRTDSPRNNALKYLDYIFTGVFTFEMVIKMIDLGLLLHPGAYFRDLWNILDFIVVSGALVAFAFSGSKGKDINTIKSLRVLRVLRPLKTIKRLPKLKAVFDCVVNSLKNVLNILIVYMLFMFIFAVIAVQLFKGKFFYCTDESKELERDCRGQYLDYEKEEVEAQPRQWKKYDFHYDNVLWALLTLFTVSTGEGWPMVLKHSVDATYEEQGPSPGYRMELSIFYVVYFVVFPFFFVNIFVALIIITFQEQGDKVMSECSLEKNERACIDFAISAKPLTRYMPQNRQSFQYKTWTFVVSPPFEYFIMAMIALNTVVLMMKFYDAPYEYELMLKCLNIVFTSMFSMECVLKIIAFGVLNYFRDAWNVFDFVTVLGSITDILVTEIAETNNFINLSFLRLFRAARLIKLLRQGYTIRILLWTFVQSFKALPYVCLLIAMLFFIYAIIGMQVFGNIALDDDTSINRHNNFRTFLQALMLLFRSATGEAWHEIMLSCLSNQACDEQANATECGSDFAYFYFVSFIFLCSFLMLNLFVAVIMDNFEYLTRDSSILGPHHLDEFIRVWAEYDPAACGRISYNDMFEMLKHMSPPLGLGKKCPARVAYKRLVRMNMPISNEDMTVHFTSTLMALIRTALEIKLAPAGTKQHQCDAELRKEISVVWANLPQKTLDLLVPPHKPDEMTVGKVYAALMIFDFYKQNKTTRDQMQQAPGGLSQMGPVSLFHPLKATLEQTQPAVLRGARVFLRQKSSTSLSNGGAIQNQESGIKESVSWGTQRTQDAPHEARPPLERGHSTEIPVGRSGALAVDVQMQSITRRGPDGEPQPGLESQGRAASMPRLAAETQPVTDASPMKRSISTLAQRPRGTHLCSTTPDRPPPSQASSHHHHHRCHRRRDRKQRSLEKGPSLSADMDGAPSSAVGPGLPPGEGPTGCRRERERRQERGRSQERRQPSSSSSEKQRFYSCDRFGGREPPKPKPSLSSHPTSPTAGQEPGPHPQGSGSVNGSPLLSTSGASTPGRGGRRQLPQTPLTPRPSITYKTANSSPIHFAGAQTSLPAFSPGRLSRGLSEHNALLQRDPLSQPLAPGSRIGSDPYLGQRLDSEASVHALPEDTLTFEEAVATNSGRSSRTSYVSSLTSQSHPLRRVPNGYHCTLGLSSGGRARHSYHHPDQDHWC
T5 sequence (Q02410 whole entry): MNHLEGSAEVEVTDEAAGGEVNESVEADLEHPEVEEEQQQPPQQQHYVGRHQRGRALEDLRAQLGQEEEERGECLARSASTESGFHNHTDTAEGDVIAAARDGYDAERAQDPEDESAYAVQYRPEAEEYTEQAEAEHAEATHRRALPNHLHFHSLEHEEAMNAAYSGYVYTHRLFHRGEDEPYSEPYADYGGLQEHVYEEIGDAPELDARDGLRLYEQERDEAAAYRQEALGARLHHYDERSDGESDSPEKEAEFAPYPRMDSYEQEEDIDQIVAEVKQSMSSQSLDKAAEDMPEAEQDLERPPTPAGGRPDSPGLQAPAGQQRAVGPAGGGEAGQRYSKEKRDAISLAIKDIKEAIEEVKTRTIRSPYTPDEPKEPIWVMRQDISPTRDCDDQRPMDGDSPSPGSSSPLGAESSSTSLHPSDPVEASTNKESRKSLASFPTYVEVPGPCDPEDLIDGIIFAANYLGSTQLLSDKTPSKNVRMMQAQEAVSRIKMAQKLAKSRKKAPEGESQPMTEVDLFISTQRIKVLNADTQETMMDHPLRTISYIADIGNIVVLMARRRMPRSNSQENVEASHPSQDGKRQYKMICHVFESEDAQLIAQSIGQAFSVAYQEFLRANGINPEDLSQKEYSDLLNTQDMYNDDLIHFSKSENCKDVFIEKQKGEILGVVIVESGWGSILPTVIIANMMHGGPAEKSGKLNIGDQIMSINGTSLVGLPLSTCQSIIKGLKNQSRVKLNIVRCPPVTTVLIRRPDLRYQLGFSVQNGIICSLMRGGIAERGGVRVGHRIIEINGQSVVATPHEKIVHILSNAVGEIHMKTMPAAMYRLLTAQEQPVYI
Chain of Nuclear receptor subfamily 5 group A member 2 (O00482 whole entry): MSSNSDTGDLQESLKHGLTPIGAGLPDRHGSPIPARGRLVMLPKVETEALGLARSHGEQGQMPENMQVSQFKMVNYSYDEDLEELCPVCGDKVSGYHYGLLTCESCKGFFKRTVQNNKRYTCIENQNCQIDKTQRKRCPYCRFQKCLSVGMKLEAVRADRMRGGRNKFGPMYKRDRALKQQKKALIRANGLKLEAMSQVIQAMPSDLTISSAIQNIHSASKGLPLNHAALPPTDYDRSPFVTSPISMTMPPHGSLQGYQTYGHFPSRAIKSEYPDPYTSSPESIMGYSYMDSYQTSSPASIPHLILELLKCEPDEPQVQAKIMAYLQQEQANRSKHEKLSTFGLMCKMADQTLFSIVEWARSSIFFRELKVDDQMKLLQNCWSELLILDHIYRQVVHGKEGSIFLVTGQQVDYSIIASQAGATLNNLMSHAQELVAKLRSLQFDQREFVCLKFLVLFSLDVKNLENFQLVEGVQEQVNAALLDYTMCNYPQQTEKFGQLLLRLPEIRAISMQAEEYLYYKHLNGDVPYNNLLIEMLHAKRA
Chain of Beta Lactamase (Q932Y6 whole entry): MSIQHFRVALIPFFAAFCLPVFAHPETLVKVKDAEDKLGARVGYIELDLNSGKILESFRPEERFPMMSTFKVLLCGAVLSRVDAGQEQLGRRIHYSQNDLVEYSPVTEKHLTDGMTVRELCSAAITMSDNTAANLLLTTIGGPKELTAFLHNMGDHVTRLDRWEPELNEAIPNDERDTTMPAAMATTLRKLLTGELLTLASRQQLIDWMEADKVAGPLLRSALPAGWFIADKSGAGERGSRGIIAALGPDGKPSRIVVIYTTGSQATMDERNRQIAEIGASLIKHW
Chain of Beta-lactamase (Pseudomonas aeruginosa, UniProt Q79MP6) (Q79MP6 whole entry): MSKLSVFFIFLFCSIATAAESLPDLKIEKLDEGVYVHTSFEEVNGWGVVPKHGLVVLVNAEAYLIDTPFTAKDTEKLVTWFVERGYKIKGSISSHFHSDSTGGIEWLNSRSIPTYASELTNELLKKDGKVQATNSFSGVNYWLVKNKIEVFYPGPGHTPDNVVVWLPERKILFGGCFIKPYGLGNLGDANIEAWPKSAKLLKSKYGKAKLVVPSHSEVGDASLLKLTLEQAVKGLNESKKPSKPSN
Chain of Photoreceptor-specific nuclear receptor (Q9Y5X4 whole entry, the tested form may be a part): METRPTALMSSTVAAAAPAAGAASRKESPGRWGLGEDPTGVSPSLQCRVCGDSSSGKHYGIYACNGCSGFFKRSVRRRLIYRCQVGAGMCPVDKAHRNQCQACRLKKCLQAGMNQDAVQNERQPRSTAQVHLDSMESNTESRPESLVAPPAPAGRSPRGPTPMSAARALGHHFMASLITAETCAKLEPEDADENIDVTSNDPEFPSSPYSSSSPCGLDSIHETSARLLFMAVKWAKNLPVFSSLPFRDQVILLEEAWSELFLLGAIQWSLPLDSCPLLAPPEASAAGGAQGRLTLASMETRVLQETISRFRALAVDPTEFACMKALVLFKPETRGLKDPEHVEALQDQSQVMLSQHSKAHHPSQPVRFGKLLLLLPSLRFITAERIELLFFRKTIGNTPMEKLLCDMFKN
Chain of Dual specificity protein phosphatase 3 (P51452 whole entry): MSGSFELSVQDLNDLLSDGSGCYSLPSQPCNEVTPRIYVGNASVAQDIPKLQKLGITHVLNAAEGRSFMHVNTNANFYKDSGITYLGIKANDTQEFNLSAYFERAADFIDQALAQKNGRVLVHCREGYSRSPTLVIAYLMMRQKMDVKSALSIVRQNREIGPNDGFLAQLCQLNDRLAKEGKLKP

As to `CN(C(=O)COC(=O)CCc1nc(O)c2ccccc2n1)C1CCS(=O)(=O)C1` (stereo unspecified), in assay [1], the IC50 is > 20 µM (inactive).
`O=C(/C=C/c1ccc([N+](=O)[O-])o1)NNC(=O)c1ccc(F)cc1`: the EC50 is 7.04 µM (inconclusive) in the assay on BJ [2]; 2.93 µM (active) in the assay with BJ [3]; 13.9 µM (active) at Streptokinase A; 7.26 µM (active) in assay [5]; 1.24 µM (active) in assay [6]; > 300 µM (not active) in [7]. Further, the EC50 in [8] was 2.58 µM (active); in assay [9], 24.8 µM (active); in the assay with Streptococcus it was 10.3 µM (active); in assay [10], 4.1 µM (inconclusive); in the assay with BJ [11] it was 4.1 µM (inconclusive); in the assay with BJ [12], > 150 µM (inconclusive). Moreover, in assay [4], the IC50 was 1.8 µM (active). In addition, the CC50 with Vero was 14.5 µM (active).
Consider `Cc1onc(NC(=O)c2ccc([N+](=O)[O-])o2)c1Br`, for which the IC50 was 35.9 µM (inactive) in assay [13], 1.33 µM (active) in assay [14] and 0.369 µM (active) on Steroidogenic factor 1. The CC50 in assay [15] is 8.19 µM (active); in the assay on Vero, 20.8 µM (active).
Turning to `C/C(=N\Nc1ccc(S(N)(=O)=O)cc1[N+](=O)[O-])c1cccs1`, the IC50 in assay [16] is 38.2 µM (inactive); in assay [17] it was 3.04 µM (active); on Beta-lactamase [18], > 59.6 µM (inactive); at Beta Lactamase, > 59.6 µM (inactive); in [19], 1.42 µM (active); in assay [20] it was 2.13 µM (active). The IC50 in [21] is > 50 µM (inactive); at Beta-lactamase [22], > 59.6 µM (inactive); in [23] it was 13.9 µM (active); in assay [24], > 80 µM (inactive); in assay [25], 81.3 µM (inactive).
